“Also recorded” adds a separate entry of the source.

Data set [1] can be described thus: Body weight after one month of treatment. Type of data set: in vivo, rat (male Sprague-Dawley). As to conditions: STZ-diabetic rats, N = 24. Here is the method: (§1) Groups D, DI, DE, DA, DIA and DEA were induced to type 1 diabetes mellitus by a single intravenous injection of streptozotocin (STZ; 85 mg/kg bw) (Sigma Chemical Co., Saint Louis, Mo, USA) in saline acidified to pH 4.5 with 0.1 M citrate buffer. Three days later, nonfasting blood glucose level was measured using Accu-Chek (Accu-Chek Instant Test; Roche Diagnostics GmbH, Mannheim, Germany); a level of ≥250 mg/dL confirmed type 1 diabetes mellitus.
(§2) All the animals were weighed weekly, and blood glucose levels were determined using Accu-Chek (Accu-Chek instant test, Roche Diagnostics GmbH, Mannheim, Germany) weekly during one month of treatment.

The nature of data set [2]: Plasma active GLP-1 (ELISA). Type of data set: in vivo, rat (male Sprague-Dawley). The following applies: STZ-diabetic rats; active GLP-1 (7–36 and 7–37) by ELISA over one month, N = 6. Here is the method:
as §1
Rats were anesthetized, and blood was collected from the sublingual vein on days 1, 7, 14, 21, and 28 of the treatment period, at a constant time range of 9 to 10 AM. […] A relative fluorescent unit (RFU) curve was plotted using these standards (Figure 1).

Data set [3] has as its system streptozotocin-induced type 1 diabetic rats. Briefly: Blood glucose (Accu-Chek). It counts as in vivo, rat (male Sprague-Dawley). The following applies: STZ-diabetic rats; for effect of treatment on blood glucose level: one month of treatment, N = 24, P < .05 significant. Here is the method: as §1, §2
For data set [4] the following is noted: cited from earlier work. The text has this: (§3) Furthermore, this effect was eliminated upon the removal of the endothelial lining.
For data set [5] the following is noted: in vivo; cited from earlier work. The text has this:
Incretin mimetics have been introduced in the market to be used as therapies for diabetes mellitus [[2 ...

In data set [6] the test system is GLP-1 receptors on the human coronary endothelial cells. Further details: method as in earlier work. As to conditions: ref 27 (Nystrom et al.); cited from earlier work.
The conditions of data set [7]: in vivo; cited from earlier work. The text has this: The intravenous injection of streptozotocin (STZ)—a glucosamine-nitrosourea antibiotic with structural similarity to glucose that is readily taken up by the pancreatic β cells—causes β cells toxicity and ultimately necrosis, leading to deficiency in insulin secretion. The use of Streptozotocin to induce type 1 diabetes in rats is advantageous, because it is easy, fast, and the effect of diabetes on the heart can be evaluated. Our aim was to assess the long-term effects of treatments on ...
This is another data set of the same source.

Data set [8] concerns the target T1, GLP-1 receptor at the cardiomyocytes (Rattus norvegicus, UniProt P32301).
T1 construct: from tissue; host or cells: in situ perfused heart of male Sprague-Dawley rats (normal, streptozotocin-diabetic and treated groups)
T1 sequence (P32301 22-463): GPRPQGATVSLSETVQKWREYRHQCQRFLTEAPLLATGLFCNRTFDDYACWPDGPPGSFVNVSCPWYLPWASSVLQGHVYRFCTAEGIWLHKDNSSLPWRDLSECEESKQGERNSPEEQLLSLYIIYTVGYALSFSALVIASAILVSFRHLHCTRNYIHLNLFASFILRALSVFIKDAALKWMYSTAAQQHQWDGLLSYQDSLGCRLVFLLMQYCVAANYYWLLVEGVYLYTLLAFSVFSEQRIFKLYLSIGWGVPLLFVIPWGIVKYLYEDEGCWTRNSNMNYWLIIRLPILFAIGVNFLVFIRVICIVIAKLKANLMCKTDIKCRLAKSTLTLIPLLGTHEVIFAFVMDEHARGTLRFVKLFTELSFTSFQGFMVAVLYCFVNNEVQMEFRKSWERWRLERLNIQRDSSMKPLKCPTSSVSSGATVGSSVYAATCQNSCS
Briefly: Perfusion of rat heart with ^125I-GLP-1: binding at the cardiomyocytes (CHAPS-treated). As to conditions: STZ-diabetic rats, one month of treatment, compared with diabetic (D) and normal (N). Set-up: species or system rat (male Sprague-Dawley). Here is the method: (§4) In addition, the left and right lungs were tied in order to block the blood flow to them and to other organs. The aorta was slightly cut, and a polyethylene catheter was inserted (from cephalad to caudad) into its lumen to reach the aortic valve. The right atrium was punctured, and another catheter was inserted to carry out the perfusate. Both catheters were secured with a suture. A 50 mL syringe filled with heparinized Ringer-Lock buffer containing 20 meq/L K ^+, oxygenated with 95% O2, 5% CO2 at 37°C linked to an infusion pump was attached to the inlet. This solution cleared the heart from blood and clots for 15 minutes; infusion of a Ringer-Lock buffer solution for another 15 minutes cleared the heart from heparin. These steps were followed by the perfusion of a buffer containing 8.25 × 10^−4 nM/L [^125I] […] The perfusate was collected for 20 minutes at specific time intervals (between 0-1, 1-2, 2-3, 3-4, 4-5, 5-6, 6-7, 7-8, 8-9, 9-10, 10–12, 12–15, 15–20 minutes); after each collection, 500 μL of the sample was put in a liquid scintillation vial containing 4 mL of Ecolume scintillation cocktail, which was later assayed for radioactivity by a liquid scintillation analyzer. […]

Data set [9] addresses T2, GLP-1 receptor at the coronary endothelium (Rattus norvegicus, UniProt P32301).
T2 construct: from tissue; host or cells: in situ perfused heart of male Sprague-Dawley rats (normal, streptozotocin-diabetic and treated groups)
T2 sequence (P32301 22-463): T1 sequence (P32301 22-463)
Briefly: Perfusion of rat heart with ^125I-GLP-1: binding at the coronary endothelium (buffer alone, CHAPS-untreated). Set-up: species or system rat (male Sprague-Dawley). Here is the method: as §4

Data set [10] deals with nitric oxide synthase production by endothelial cells. As to conditions: ref 28 (Dong et al.); cited from earlier work.
From the text: as §3

For data set [11], the system named is left ventricular hypertrophy. The following applies: compared with angiotensin receptor blockers; cited from earlier work. The text has this: Diabetes mellitus currently affects more than 170 million individuals worldwide. Other than hyperglycemia, diabetes mellitus can cause a 2-3-fold increase in the occurrence of cardiovascular disease (CVD). […] Receptor signaling on the pancreas leads to enhanced insulin biosynth ...

For a further data set, the system named is type 2 diabetic mice. As to conditions: cited from earlier work.

Consider “Exendin-4: GLP-1 analogue, GLP-1 receptor agonist (Sigma); group DE, 0.03 μg/kg ip bid”, for which the “body weight vs diabetic untreated” value in data set [1] was “significant increase in their body weight”. The “effect of treatment on plasma GLP-1 level” value in data set [2] is reported as “normalized”. In data set [3], the “effect of treatment on blood glucose level” value was “Although not significant, Exendin-4 treatment showed slight improvement”.

Turning to glucagon-like peptide-1 [GLP-1], the “vasodilation on GLP-1 infusion” value in [4] is recorded as “induce vasodilation”. Besides, the physiologic half-life entry in data set [5] is listed as “very short physiologic half-life”. Further, in data set [6], the “vasodilation on binding to GLP-1 receptors” value is listed as “induce vasodilation”.

Consider Insulin glargine, for which the duration of action in [7] is below 24 h.

As for `COCCCOc1cc(C[C@@H](C[C@H](N)[C@@H](O)C[C@H](C(=O)NCC(C)(C)C(N)=O)C(C)C)C(C)C)ccc1OC` [Aliskiren], the “effect of treatment on GLP-1 binding affinity (τ) at the cardiomyocytes” value in [8] is given as “did not lower the affinity”. Besides, in data set [9] (STZ-diabetic rats, one month of treatment, compared with diabetic (D) and normal (N)), the “effect of treatment on GLP-1 binding affinity (τ) at the coronary endothelium” value was “did not alter τ from diabetics in the CE; also recorded: no significant change in its affinity; also recorded: did not ameliorate it”. Further, the “effect of treatment on K d of GLP-1 at the coronary endothelium” value in data set [9] (treated STZ-diabetic rats compared to the normal) was “extremely significant increase in K d constant”. The “nitric oxide synthase production by endothelial cells” value in data set [10] is “significantly restored”. For the same molecule, the “effect of treatment on plasma GLP-1 level” value in data set [2] is “normalized”. In addition, in [3] (Aliskiren 50 mg/kg oral qd, after one month), the “fraction of treated rats with normal blood glucose levels” value worked out at 12.5%. Moreover, the “effect of treatment on blood glucose level” value in [3] was “significantly decreased blood glucose levels compared to the untreated”. The left ventricular hypertrophy result in data set [11] is reported as “reduce left ventricular hypertrophy as efficiently as angiotensin receptor blockers (ARBs)”. Further, the insulin sensitivity result in the data set on type 2 diabetic mice is recorded as “improves insulin sensitivity”.

Source of the values: paper PMC3124137 (Experimental Diabetes Research, 2011).
